Data on two compounds can be found in ChEMBL document CHEMBL4196143, “Total Synthesis and Structure Revision of Palmarumycin B6” (2018).

This assay has as its system Aedes albopictus. As to the kind of experiment: Larvicidal activity against Aedes albopictus assessed as […] larval mortality after 24 hrs. It counts as functional.

For orientation: LC50 means the concentration that kills 50% of the test population. `O=C1CCC2(Oc3cccc4cccc(c34)O2)c2c(Cl)ccc(O)c21`: the LC50 stood at 227 µM. For `O=C1CCC2(Oc3cccc4cccc(c34)O2)c2ccc(Cl)c(O)c21` the value was 32.7 µM.
